Data taken from the supplement of paper PMC11061612.

Columns and labels:
[1] = compound: O=c1[nH]cc(F)c(=O)[nH]1 [5-Fluorouracil]; settings: max 20 µM
In short: (§1)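 After 24 hours at 37°C and 5% CO2 in 1536-well plates holding 7.5 μl of DMEM/F12 or RPMI with 10% FBS, cancer cell lines were dosed for 72 hours, with final DMSO typically 0.2%. Viability came from CellTiter-Glo 2.0 luminescence, scaled between the means of blank wells and DMSO wells. A non-linear mixed effects model fitted a two-parameter logistic curve to each dose response to give the single-agent IC50.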

[2] = compound: C=CCn1c(=O)c2cnc(Nc3ccc(N4CCN(C)CC4)cc3)nc2n1-c1cccc(C(C)(C)O)n1 [AZD1775]; settings: max 3 µM
In short: as §1

[3] = compound: N#Cc1cnc(Nc2cc(NC[C@H]3CNCCO3)c(C(F)(F)F)cn2)cn1 [SRA737]; settings: max 10 µM
In short: as §1

[4] = compound: Cc1c2c(nn1C)CSCc1cc(n(C)n1)CSc1cc(c3ccccc3c1)OCCCc1c(C(=O)O)n(C)c3c-2c(Cl)ccc13 [AZD5991]; settings: max 1 µM
In short: as §1

[5] = compound: Nc1ccn([C@@H]2O[C@H](CO)[C@@H](O)C2(F)F)c(=O)n1 [Gemcitabine]; settings: max 0.3 µM
In short: as §1

[6] = compound: C1CC(C1)(C(=O)[O-])C(=O)[O-].N.N.[Pt+2] [Carboplatin]; settings: max 10 µM
In short: as §1

[7] = compound: C[C@@H](c1ccc2nccn2c1)n1nnc2ncc(-c3cnn(C)c3)nc21 [Savolitinib]; settings: max 1 µM
In short: as §1

[8] = compound: C[C@@H](Nc1cc(F)cc(F)c1)c1cc(C(=O)N(C)C)cc2c(=O)cc(N3CCOCC3)oc12 [AZD8186]; settings: max 10 µM
In short: as §1

[9] = compound: C[C@@H]1COCCN1C2=NC(=NC(=C2)C3(CC3)[S@](=N)(=O)C)C4=C5C=CNC5=NC=C4 [AZD6738]; settings: max 10 µM
In short: as §1

[10] = compound: Cc1cc2ncnn2cc1Nc1ncc2c(n1)n(C1CCOCC1)c(=O)n2C [AZD7648]; settings: max 10 µM
In short: as §1

[11] = compound: COc1nnc2ccc(N3CCC(c4ccc(OCCN5CCN(C)C(=O)[C@H]5C)cc4)CC3)nn12 [AZD5153]; settings: max 1 µM
In short: as §1

[12] = compound: CC1=C(C(=CC=C1)Cl)NC(=O)C2=CN=C(S2)NC3=CC(=NC(=N3)C)N4CCN(CC4)CCO [Dasatinib]; settings: max 2 µM
In short: as §1

[13] = compound: O=C(c1cc(Cc2n[nH]c(=O)c3ccccc23)ccc1F)N1CCN(C(=O)C2CC2)CC1 [Olaparib]; settings: max 10 µM
In short: as §1

[14] = compound: CCc1c2c(nc3ccc(O)cc13)-c1cc3c(c(=O)n1C2)COC(=O)[C@]3(O)CC [SN-38]; settings: max 0.3 µM
In short: as §1

[15] = compound: O=C(Nc1ccc2[nH]nc(-c3ccncc3)c2c1)[C@@H]1CCN(CC(=O)N2CCN(c3ccc(-c4ncccn4)cc3)CC2)C1; settings: max 5 µM
In short: as §1

[16] = compound: C[C@@H](Oc1cc(-c2cnn(C3CCNCC3)c2)cnc1N)c1c(Cl)ccc(F)c1Cl [Crizotinib]; settings: max 10 µM
In short: as §1

[17] = compound: CC(=O)O[C@H]1C(=O)[C@@]2(C)[C@H]([C@H](OC(=O)c3ccccc3)[C@]3(O)C[C@H](OC(=O)[C@H](O)[C@@H](NC(=O)c4ccccc4)c4ccccc4)C(C)=C1C3(C)C)[C@]1(OC(C)=O)CO[C@@H]1C[C@@H]2O [Paclitaxel]; settings: max 3 µM
In short: as §1

[18] = compound: C1CN(CCC1(C(=O)N[C@@H](CCO)C2=CC=C(C=C2)Cl)N)C3=NC=NC4=C3C=CN4 [AZD5363]; settings: max 10 µM
In short: as §1

[19] = compound: CC1=CN2[C@@H](C1)C=NC3=CC(=C(C=C3C2=O)OC)OCCCCCOC4=C(C=C5C(=C4)N=C[C@@H]6CC(=CN6C5=O)C)OC [SG3199]; settings: max 0.001 µM
In short: as §1

[20] = compound: Cc1nc(-c2cn3c(n2)-c2ccc(-c4cnn(C(C)(C)C(N)=O)c4)cc2OCC3)n(C(C)C)n1 [Taselisib]; settings: max 10 µM
In short: as §1

[21] = compound: CC1(C)CCC(CN2CCN(c3ccc(C(=O)NS(=O)(=O)c4ccc(NCC5CCOCC5)c([N+](=O)[O-])c4)c(Oc4cnc5[nH]ccc5c4)c3)CC2)=C(c2ccc(Cl)cc2)C1 [Venetoclax]; settings: max 1 µM
In short: as §1

[22] = compound: CN(C)CCCOc1ccc(-c2ccc3ncc4c(c3c2)n(C2CCOCC2)c(=O)n4C)cn1 [AZD0156]; settings: max 3 µM
In short: as §1

[23] = compound: COc1cc2ncnc(Nc3ccc(F)c(Cl)c3)c2cc1OCCCN1CCOCC1 [Gefitinib]; settings: max 10 µM
In short: as §1

[24] = compound: CCN(CCO)CCCOc1ccc2c(Nc3cc(CC(=O)Nc4cccc(F)c4)[nH]n3)ncnc2c1 [AZD2811]; settings: max 1 µM
In short: as §1

[25] = compound: COc1cc([C@@H]2c3cc4c(cc3[C@@H](O[C@@H]3O[C@@H]5CO[C@@H](C)O[C@H]5[C@H](O)[C@H]3O)[C@H]3COC(=O)[C@H]23)OCO4)cc(OC)c1O [Etoposide]; settings: max 10 µM
In short: as §1

[26] = compound: COc1cc(Nc2ncc3c(n2)-c2ccc(Cl)cc2C(c2c(F)cccc2OC)=NC3)ccc1C(=O)O [Alisertib]; settings: max 10 µM
In short: as §1

[27] = compound: COc1cccc(OCCCN)c1-c1cc(Nc2cnc(C#N)cn2)n[nH]1 [Prexasertib]; settings: max 1 µM
In short: as §1

[28] = compound: CC(C)n1c(=O)n(C)c2cnc3cc(F)c(-c4ccc(OCCCN5CCCCC5)nc4)cc3c21 [AZD1390]; settings: max 0.3 µM
In short: as §1

[29] = compound: COc1cccc2c1C(=O)c1c(O)c3c(c(O)c1C2=O)C[C@@](O)(C(=O)CO)C[C@@H]3O[C@H]1C[C@H](N)[C@H](O)[C@H](C)O1 [Doxorubicin]; settings: max 1 µM
In short: as §1

[30] = compound: Cn1cnc2c(F)c(Nc3ccc(Br)cc3Cl)c(C(=O)NOCCO)cc21 [Selumetinib]; settings: max 10 µM
In short: as §1

[31] = compound: NC1(c2ccc(-c3nc4ccn5c(=O)[nH]nc5c4cc3-c3ccccc3)cc2)CCC1 [MK-2206]; settings: max 10 µM
In short: as §1

[32] = compound: CC(=O)c1c(C)c2cnc(Nc3ccc(N4CCNCC4)cn3)nc2n(C2CCCC2)c1=O [Palbociclib]; settings: max 10 µM
In short: as §1

[33] = compound: CS(=O)(=O)CCNCc1ccc(-c2ccc3ncnc(Nc4ccc(OCc5cccc(F)c5)c(Cl)c4)c3c2)o1 [Lapatinib]; settings: max 10 µM
In short: as §1

[34] = compound: CN(CC[C@H](CSC1=CC=CC=C1)NC2=C(C=C(C=C2)S(=O)(=O)NC(=O)C3=CC=C(C=C3)N4CCC(CC4)[C@H](C5=CC=CC=C5C6=CC=C(C=C6)Cl)O)S(=O)(=O)C(F)(F)F)CCO [AZD4320]; settings: max 1 µM
In short: as §1

[35] = compound: CC(=O)Nc1cccc(-n2c(=O)n(C3CC3)c(=O)c3c(Nc4ccc(I)cc4F)n(C)c(=O)c(C)c32)c1 [Trametinib]; settings: max 1 µM
In short: as §1

SW1088 (Low Grade Glioma)
IC50, cell viability 72 h [1]: > 20000 nM
IC50, cell viability 72 h [2]: 2040 nM
IC50, cell viability 72 h [3]: > 10000 nM
IC50, cell viability 72 h [4]: > 1000 nM
IC50, cell viability 72 h [5]: > 300 nM
IC50, cell viability 72 h [6]: > 10000 nM
IC50, cell viability 72 h [7]: > 1000 nM
IC50, cell viability 72 h [8]: 1740 nM
IC50, cell viability 72 h [9]: 9510 nM
IC50, cell viability 72 h [10]: > 10000 nM
IC50, cell viability 72 h [11]: > 1000 nM
IC50, cell viability 72 h [12]: 283 nM
IC50, cell viability 72 h [13]: > 10000 nM
IC50, cell viability 72 h [14]: > 300 nM
IC50, cell viability 72 h [15]: > 5000 nM
IC50, cell viability 72 h [16]: > 10000 nM
IC50, cell viability 72 h [17]: 29.1 nM
IC50, cell viability 72 h [18]: 6480 nM
IC50, cell viability 72 h [19]: > 1 nM
IC50, cell viability 72 h [20]: 4280 nM
IC50, cell viability 72 h [21]: > 1000 nM
IC50, cell viability 72 h [22]: > 3000 nM
IC50, cell viability 72 h [23]: > 10000 nM
IC50, cell viability 72 h [24]: > 1000 nM
IC50, cell viability 72 h [25]: > 10000 nM
IC50, cell viability 72 h [26]: 807 nM
IC50, cell viability 72 h [27]: 129 nM
IC50, cell viability 72 h [28]: > 300 nM
IC50, cell viability 72 h [29]: > 1000 nM
IC50, cell viability 72 h [30]: > 10000 nM
IC50, cell viability 72 h [31]: > 10000 nM
IC50, cell viability 72 h [32]: > 10000 nM
IC50, cell viability 72 h [33]: > 10000 nM
IC50, cell viability 72 h [34]: > 1000 nM
IC50, cell viability 72 h [35]: > 1000 nM

IHH-4 (Thyroid Gland Carcinoma)
IC50, cell viability 72 h [1]: 3430 nM
IC50, cell viability 72 h [2]: 414 nM
IC50, cell viability 72 h [3]: > 10000 nM
IC50, cell viability 72 h [4]: > 1000 nM
IC50, cell viability 72 h [5]: 8.74 nM
IC50, cell viability 72 h [6]: > 10000 nM
IC50, cell viability 72 h [7]: > 1000 nM
IC50, cell viability 72 h [8]: > 10000 nM
IC50, cell viability 72 h [9]: 4340 nM
IC50, cell viability 72 h [10]: > 10000 nM
IC50, cell viability 72 h [11]: 680 nM
IC50, cell viability 72 h [12]: 961 nM
IC50, cell viability 72 h [13]: > 10000 nM
IC50, cell viability 72 h [14]: 5.41 nM
IC50, cell viability 72 h [15]: 1220 nM
IC50, cell viability 72 h [16]: 7340 nM
IC50, cell viability 72 h [17]: 7 nM
IC50, cell viability 72 h [18]: > 10000 nM
IC50, cell viability 72 h [19]: > 1 nM
IC50, cell viability 72 h [20]: > 10000 nM
IC50, cell viability 72 h [21]: > 1000 nM
IC50, cell viability 72 h [22]: > 3000 nM
IC50, cell viability 72 h [23]: > 10000 nM
IC50, cell viability 72 h [24]: > 1000 nM
IC50, cell viability 72 h [25]: 1670 nM
IC50, cell viability 72 h [26]: 5970 nM
IC50, cell viability 72 h [27]: 99.4 nM
IC50, cell viability 72 h [28]: > 300 nM
IC50, cell viability 72 h [29]: 275 nM
IC50, cell viability 72 h [30]: 4470 nM
IC50, cell viability 72 h [31]: > 10000 nM
IC50, cell viability 72 h [32]: > 10000 nM
IC50, cell viability 72 h [33]: > 10000 nM
IC50, cell viability 72 h [34]: > 1000 nM
IC50, cell viability 72 h [35]: 85.3 nM
